# According to patent US12252497B2, “Ras inhibitors” (Revolution Medicines, Inc., priority 2021, dated 2025):
# Like-named read-outs stand apart in the source and are kept apart here.
# Details: ester bond, 18-membered ring
smiles,measurement,setting,value
CCn1c(-c2cc(N3CCN4CCC[C@@H]4C3)cnc2[C@H](C)OC)c2c3cc(ccc31)-c1cccc(c1)C[C@H](NC(=O)OC(C)(C)C)C(=O)N1CCC[C@H](N1)C(=O)OCC(C)(C)C2,"ring closure, isolated yield","from CCn1c(-c2cc(N3CCN4CCC[C@@H]4C3)cnc2[C@H](C)OC)c(CC(C)(C)CO)c2cc(-c3cccc(C[C@H](NC(=O)OC(C)(C)C)C(=O)N4CCC[C@@H](C(=O)O)N4)c3)ccc21, EDCI/HOBt/DIPEA, DCM, 16.7 mM, 25.0 °C",42%
CO[C@@H](C)c1ncc(N2CCN3CCOC[C@@H]3C2)cc1-c1c2c3cc(ccc3n1CC(F)(F)F)-c1csc(n1)C[C@H](NC(=O)OC(C)(C)C)C(=O)N1CCC[C@H](N1)C(=O)OCC(C)(C)C2,"ring closure, isolated yield","from CO[C@@H](C)c1ncc(N2CCN3CCOC[C@@H]3C2)cc1-c1c(CC(C)(C)CO)c2cc(-c3csc(C[C@H](NC(=O)OC(C)(C)C)C(=O)N4CCC[C@@H](C(=O)O)N4)n3)ccc2n1CC(F)(F)F, EDCI/HOBt/DIEA, DCM, 10.6 mM, 25.0 °C",64%
CCn1c(-c2cc(N3CCN(C4CC4)CC3)cnc2[C@H](C)OC)c2c3cc(ccc31)-c1cccc(c1)C[C@H](NC(=O)OC(C)(C)C)C(=O)N1CCC[C@H](N1)C(=O)OCC(C)(C)C2,"ring closure, isolated yield","from CCn1c(-c2cc(N3CCN(C4CC4)CC3)cnc2[C@H](C)OC)c(CC(C)(C)CO)c2cc(-c3cccc(C[C@H](NC(=O)OC(C)(C)C)C(=O)N4CCC[C@@H](C(=O)O)N4)c3)ccc21, EDCI/HOBt/DIEA, DCM, 14.4 mM, 25.0 °C",64%
CCn1c(-c2cc(N3CCN(C(=O)OCc4ccccc4)CC3)cnc2[C@H](C)OC)c2c3cc(ccc31)-c1csc(n1)C[C@H](NC(=O)OC(C)(C)C)C(=O)N1CCC[C@H](N1)C(=O)OCC(C)(C)C2,"ring closure, isolated yield","from CCn1c(-c2cc(N3CCN(C(=O)OCc4ccccc4)CC3)cnc2[C@H](C)OC)c(CC(C)(C)CO)c2cc(-c3csc(C[C@H](NC(=O)OC(C)(C)C)C(=O)N4CCC[C@@H](C(=O)O)N4)n3)ccc21, EDCI/HOBt/DIPEA, MeCN, 10.3 mM, 25.0 °C",55%
CO[C@@H](C)c1ncc(N2CCN3CCOC[C@@H]3C2)cc1-c1c2c3cc(ccc3n1CC(F)(F)F)N1CCO[C@@H](C[C@H](NC(=O)OC(C)(C)C)C(=O)N3CCC[C@H](N3)C(=O)OCC(C)(C)C2)C1,"ring closure, isolated yield","from CO[C@@H](C)c1ncc(N2CCN3CCOC[C@@H]3C2)cc1-c1c(CC(C)(C)CO)c2cc(N3CCO[C@@H](C[C@H](NC(=O)OC(C)(C)C)C(=O)N4CCC[C@@H](C(=O)O)N4)C3)ccc2n1CC(F)(F)F, EDCI/HOBt/NMM, DCM, 10.6 mM, 25.0 °C",48%
CO[C@@H](C)c1ncc(N2CCN(C3CC3)CC2)cc1-c1c2c3cc(ccc3n1CC(F)(F)F)N1CCO[C@@H](C[C@H](NC(=O)OC(C)(C)C)C(=O)N3CCC[C@H](N3)C(=O)OCC(C)(C)C2)C1,"ring closure, isolated yield","from CO[C@@H](C)c1ncc(N2CCN(C3CC3)CC2)cc1-c1c(CC(C)(C)CO)c2cc(N3CCO[C@@H](C[C@H](NC(=O)OC(C)(C)C)C(=O)N4CCC[C@@H](C(=O)O)N4)C3)ccc2n1CC(F)(F)F, EDCI/HOBt/DIEA, DCM, 9.22 mM, 25.0 °C",64%
CCn1c(-c2cc(N3CCN4CCC[C@@H]4C3)cnc2[C@H](C)OC)c2c3cc(ccc31)-c1cc(cc(C(F)F)c1)C[C@H](NC(=O)OC(C)(C)C)C(=O)N1CCC[C@H](N1)C(=O)OCC(C)(C)C2,"ring closure, isolated yield","from CCn1c(-c2cc(N3CCN4CCC[C@@H]4C3)cnc2[C@H](C)OC)c(CC(C)(C)CO)c2cc(-c3cc(C[C@H](NC(=O)OC(C)(C)C)C(=O)N4CCC[C@@H](C(=O)O)N4)cc(C(F)F)c3)ccc21, EDCI/HOBt/DIEA, DCM, 10.1 mM, 25.0 °C",78%
CCn1c(-c2cc(N3CCN4CCCC[C@@H]4C3)cnc2[C@H](C)OC)c2c3cc(ccc31)-c1cc(cc(C(F)F)c1)C[C@H](NC(=O)OC(C)(C)C)C(=O)N1CCC[C@H](N1)C(=O)OCC(C)(C)C2,"ring closure, isolated yield","from CCn1c(-c2cc(N3CCN4CCCC[C@@H]4C3)cnc2[C@H](C)OC)c(CC(C)(C)CO)c2cc(-c3cc(C[C@H](NC(=O)OC(C)(C)C)C(=O)N4CCC[C@@H](C(=O)O)N4)cc(C(F)F)c3)ccc21, EDCI/HOBt/DIEA, DCM, 5.27 mM, 25.0 °C",90%
CCn1c(-c2cc(N3CCN4CCOC[C@@H]4C3)cnc2[C@H](C)OC)c2c3cc(ccc31)N1CCO[C@@H](C[C@H](NC(=O)OC(C)(C)C)C(=O)N3CCC[C@H](N3)C(=O)OCC(C)(C)C2)C1,"ring closure, isolated yield","from CCn1c(-c2cc(N3CCN4CCOC[C@@H]4C3)cnc2[C@H](C)OC)c(CC(C)(C)CO)c2cc(N3CCO[C@@H](C[C@H](NC(=O)OC(C)(C)C)C(=O)N4CCC[C@@H](C(=O)O)N4)C3)ccc21, EDCI/HOBt/NMM, DCM, 11.2 mM, 25.0 °C",51%
CO[C@@H](C)c1ncc(N2CCN3CCCC[C@@H]3C2)cc1-c1c2c3cc(ccc3n1CC(F)(F)F)-c1cccc(c1)C[C@H](NC(=O)OC(C)(C)C)C(=O)N1CCC[C@H](N1)C(=O)OCC(C)(C)C2,"ring closure, isolated yield","from CO[C@@H](C)c1ncc(N2CCN3CCCC[C@@H]3C2)cc1-c1c(CC(C)(C)CO)c2cc(-c3cccc(C[C@H](NC(=O)OC(C)(C)C)C(=O)N4CCC[C@@H](C(=O)O)N4)c3)ccc2n1CC(F)(F)F, EDCI.HCl/HOBt/DIPEA, DCM, 12.9 mM, 0.0 °C",65%
CCn1c(-c2cc(N3CCN4CCOC[C@@H]4C3)cnc2[C@H](C)OC)c2c3cc(ccc31)-c1cc(CF)cc(c1)C[C@H](NC(=O)OC(C)(C)C)C(=O)N1CCC[C@H](N1)C(=O)OCC(C)(C)C2,"ring closure, isolated yield","from CCn1c(-c2cc(N3CCN4CCOC[C@@H]4C3)cnc2[C@H](C)OC)c(CC(C)(C)CO)c2cc(-c3cc(CF)cc(C[C@H](NC(=O)OC(C)(C)C)C(=O)N4CCC[C@@H](C(=O)O)N4)c3)ccc21, EDCI/HOBt/DIEA, DCM, 11.3 mM, 0.0 °C",69%
CCn1c(-c2cc(N3CCN4CCC[C@@H]4C3)cnc2[C@H](C)OC)c2c3cc(ccc31)-c1csc(n1)C[C@H](NC(=O)OC(C)(C)C)C(=O)N1CCC[C@H](N1)C(=O)OCC(C)(C)C2,"ring closure, isolated yield","from CCn1c(-c2cc(N3CCN4CCC[C@@H]4C3)cnc2[C@H](C)OC)c(CC(C)(C)CO)c2cc(-c3csc(C[C@H](NC(=O)OC(C)(C)C)C(=O)N4CCC[C@@H](C(=O)O)N4)n3)ccc21, EDCI/HOBt/DIEA, DCM, 111.6 mM, 25.0 °C, 16.0 h",37%
CCn1c(-c2cc(N3CCN4CCOC[C@@H]4C3)cnc2[C@H](C)OC)c2c3cc(ccc31)-c1csc(n1)C[C@H](NC(=O)OC(C)(C)C)C(=O)N1CCC[C@H](N1)C(=O)OCC(C)(C)C2,"ring closure, isolated yield","from CCn1c(-c2cc(N3CCN4CCOC[C@@H]4C3)cnc2[C@H](C)OC)c(CC(C)(C)CO)c2cc(-c3csc(C[C@H](NC(=O)OC(C)(C)C)C(=O)N4CCC[C@@H](C(=O)O)N4)n3)ccc21, EDCI/HOBt/DIPEA, DCM, 11.3 mM, 25.0 °C",52%
CO[C@@H](C)c1ncc(N2CCN(C3CC3)CC2)cc1-c1c2c3cc(ccc3n1CC(F)(F)F)C1=CCCN(C1)C[C@H](NC(=O)OC(C)(C)C)C(=O)N1CCC[C@H](N1)C(=O)OCC(C)(C)C2,"ring closure, isolated yield","from CO[C@@H](C)c1ncc(N2CCN(C3CC3)CC2)cc1-c1c(CC(C)(C)CO)c2cc(C3=CCCN(C[C@H](NC(=O)OC(C)(C)C)C(=O)N4CCC[C@@H](C(=O)O)N4)C3)ccc2n1CC(F)(F)F, EDCI/HOBt/DIEA, DCM, 10.8 mM, 25.0 °C",73%
CCn1c(-c2cc(N3CCN(C4CC4)CC3)cnc2[C@H](C)OC)c2c3cc(ccc31)N1CCO[C@@H](C[C@H](NC(=O)OCc3ccccc3)C(=O)N3CCC[C@H](N3)C(=O)OCC(C)(C)C2)C1,"ring closure, isolated yield","from CCn1c(-c2cc(N3CCN(C4CC4)CC3)cnc2[C@H](C)OC)c(CC(C)(C)CO)c2cc(N3CCO[C@@H](C[C@H](NC(=O)OCc4ccccc4)C(=O)N4CCC[C@@H](C(=O)O)N4)C3)ccc21, EDCI/HOBt/DIEA, DCM, 11.3 mM, 30.0 °C",50%
CCn1c(-c2cc(N3CCN4CCCC[C@@H]4C3)cnc2[C@H](C)OC)c2c3cc(ccc31)-c1csc(n1)C[C@H](NC(=O)OC(C)(C)C)C(=O)N1CCC[C@H](N1)C(=O)OCC(C)(C)C2,"ring closure, isolated yield","from CCn1c(-c2cc(N3CCN4CCCC[C@@H]4C3)cnc2[C@H](C)OC)c(CC(C)(C)CO)c2cc(-c3csc(C[C@H](NC(=O)OC(C)(C)C)C(=O)N4CCC[C@@H](C(=O)O)N4)n3)ccc21, EDCI/HOBt/DIPEA, DCM, 11.3 mM, 25.0 °C",49%
CCn1c(-c2cc(N3CCN4CCCC[C@@H]4C3)cnc2[C@H](C)OC)c2c3cc(ccc31)N1CCO[C@@H](C[C@H](NC(=O)OC(C)(C)C)C(=O)N3CCC[C@H](N3)C(=O)OCC(C)(C)C2)C1,"ring closure, isolated yield","from CCn1c(-c2cc(N3CCN4CCCC[C@@H]4C3)cnc2[C@H](C)OC)c(CC(C)(C)CO)c2cc(N3CCO[C@@H](C[C@H](NC(=O)OC(C)(C)C)C(=O)N4CCC[C@@H](C(=O)O)N4)C3)ccc21, EDCI/HOBt/DIPEA, DMF, 11.2 mM, 25.0 °C",73%
CCn1c(-c2cc(N3CCN4CCOC[C@@H]4C3)cnc2[C@H](C)OC)c2c3cc(ccc31)-c1cc(cc(C(F)F)c1)C[C@H](NC(=O)OC(C)(C)C)C(=O)N1CCC[C@H](N1)C(=O)OCC(C)(C)C2,"ring closure, isolated yield","from CCn1c(-c2cc(N3CCN4CCOC[C@@H]4C3)cnc2[C@H](C)OC)c(CC(C)(C)CO)c2cc(-c3cc(C[C@H](NC(=O)OC(C)(C)C)C(=O)N4CCC[C@@H](C(=O)O)N4)cc(C(F)F)c3)ccc21, EDCI/HOBt/DIEA, DCM, 10.7 mM, 25.0 °C",42%
